Measurements taken from patent US20230190741A1, “LONG-LASTING REABSORBABLE SUBCUTANEOUS IMPLANT WITH SUSTAINED RELEASE OF PRE-CONCENTRATED PHARMACOLOGICALLY ACTIVE SUBSTANCE IN POLYMER FOR THE TREATMENT OF ERECTILE DYSFUNCTION AND BENIGN PROSTATIC HYPERPLASIA” (priority 2020, published 2023).

Assays:
[1] = test system: erectile dysfunction; settings: injection 10 mcg or 20 mcg applied directly to the penis, cited from earlier work
[2] = oral administration; cited from earlier work
[3] = half-life of the oral drug; type: in vivo; settings: tadalafil vs sildenafil

Row | half-life relative to half-life of sildenafil [3] [times] | SMILES | duration of effect ([1]; depending on the patient) [h] | time until effect after application [1] [min] | loss of drug ingested (first-pass metabolism plus absorptive process) [2] [%]
1 | – | CCCCC[C@H](O)/C=C/[C@H]1[C@H](O)CC(=O)[C@@H]1CCCCCCC(=O)O [alprostadil] | ≤ 2 | 20 | –
2 | 4.38 | CN1CC(=O)N2[C@H](c3ccc4c(c3)OCO4)c3[nH]c4ccccc4c3C[C@@H]2C1=O [tadalafil] | – | – | ≤ 50
